Consider 2 compounds from publication PMC9389588, “1,6-epi-Cyclophellitol Cyclosulfamidate Is a Bona Fide Lysosomal α-Glucosidase Stabilizer for the Treatment of Pompe Disease” (Journal of the American Chemical Society, 2022).

The target in one experiment is T1, β-glucosidase GBA2 (Homo sapiens, UniProt Q9HCG7).
T1 construct: expressed in transfected cells; host or cells: HEK293T
T1 sequence (Q9HCG7 1-927): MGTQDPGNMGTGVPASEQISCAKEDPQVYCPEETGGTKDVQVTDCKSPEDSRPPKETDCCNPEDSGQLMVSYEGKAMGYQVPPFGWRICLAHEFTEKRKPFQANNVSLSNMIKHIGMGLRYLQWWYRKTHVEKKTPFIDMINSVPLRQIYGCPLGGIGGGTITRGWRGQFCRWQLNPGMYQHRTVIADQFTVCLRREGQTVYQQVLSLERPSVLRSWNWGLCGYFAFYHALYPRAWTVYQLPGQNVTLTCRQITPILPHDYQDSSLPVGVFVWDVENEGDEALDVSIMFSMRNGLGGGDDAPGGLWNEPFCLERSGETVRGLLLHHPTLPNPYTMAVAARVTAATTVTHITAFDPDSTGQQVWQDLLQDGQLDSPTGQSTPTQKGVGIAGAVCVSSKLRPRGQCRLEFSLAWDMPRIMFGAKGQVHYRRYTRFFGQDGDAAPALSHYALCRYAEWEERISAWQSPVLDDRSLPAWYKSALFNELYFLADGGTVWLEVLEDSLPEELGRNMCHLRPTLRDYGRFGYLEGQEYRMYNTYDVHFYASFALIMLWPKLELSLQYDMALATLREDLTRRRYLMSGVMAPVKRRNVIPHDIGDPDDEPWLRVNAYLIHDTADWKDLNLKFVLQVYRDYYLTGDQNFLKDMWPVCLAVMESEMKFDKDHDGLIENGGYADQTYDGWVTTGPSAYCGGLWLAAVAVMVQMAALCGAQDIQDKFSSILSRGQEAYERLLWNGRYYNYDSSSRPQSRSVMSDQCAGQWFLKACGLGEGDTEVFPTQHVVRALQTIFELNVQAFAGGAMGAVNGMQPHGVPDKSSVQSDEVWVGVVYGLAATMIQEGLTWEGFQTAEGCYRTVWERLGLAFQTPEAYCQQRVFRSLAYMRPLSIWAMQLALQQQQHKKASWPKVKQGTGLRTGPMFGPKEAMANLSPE
Kind of experiment: in vitro apparent IC50, GBA2-overexpressing HEK293T lysate. It is filed as biochemical. To be noted: apparent IC50, pH 5.8, mean ± SD.

The target of the next experiment is T2, rhGAA (Myozyme) (Homo sapiens, UniProt P10253).
T2 construct: purchased Sanofi Genzyme
Kind of experiment: time-dependent inhibition of GAA. The class given is biochemical. The settings on record: preincubation 15-240 min at apparent IC50 concentration. The procedure: 2.1 Biochemical and Biological Methods
2.1.1 In vitro apparent IC50 experiments
To determine in vitro apparent IC50 values, 40 μL of enzyme-mixture was pre-incubated with 40 μL of inhibitor for […]
and 2% DMSO (v/v). GANAB in 150 mM McIlvaine buffer pH 7.0, 0.1% BSA (w/v) and 2% DMSO (v/v). GBA1 in 150 mM McIlvaine buffer pH 5.2, 0.2% Taurocholate (w/v), 0.1% Triton X-100 (v/v), 0.1% BSA (w/v), 2% DMSO (v/v). GBA2 in 150 mM McIlvaine pH 5.8, 0.1% BSA (w/v).
After preincubation, 25 μL of E+I mixture was added to a 96 wells plate and 100 μL substrate solution in the appropriate buffer was subsequently added. GAA activity was measured using final concentrations of 47 nM enzyme (Myozyme) and 3.0 mM 4-MU-α-D-glucopyranoside, for 30 minutes at 37 ℃. GANAB activity was measured using wt fibroblasts and 2.4 mM 4-MU-α-D-glucopyranoside, for 2 h at 37 ℃. GBA1 activity was measured using final concentrations of 0.7 nM enzyme (Cerezyme) and 3.0 mM 4-methylumbeliferone(4-MU)-β-D-glucopyranoside, for 30 min at 37 ℃. GBA2 residual activity was measured using cellular homogenates of HEK293T over-expressing GBA2 pre-incubated for 30 min with a GBA1 inhibitor (1 µM 37 (ME656), see Figure S1 for chemical structure), and further incubation with 3.0 mM 4-methylumbeliferone(4MU)-β-D-glucopyranoside […]

A word on the IC50: it is the concentration at which inhibition is half-maximal. Take `O=S1(=O)N[C@H]2[C@H](CO)[C@@H](O)[C@H](O)[C@@H](O)[C@H]2O1` [compound 6]: the IC50 on β-glucosidase GBA2 was greater than 500 µM. Further, the type of inhibition entry on rhGAA (Myozyme) is listed as “irreversible inhibitor”.
Turning to `O=S1(=O)N[C@@H]2[C@H](O)[C@@H](O)[C@H](O)[C@@H](CO)[C@@H]2O1` [compound 4, 1,6-epi-cyclophellitol cyclosulfamidate], the IC50 on β-glucosidase GBA2 was greater than 500 µM. Further, the type of inhibition entry at rhGAA (Myozyme) is “competitive manner”.
